Assay results published in ChEMBL document CHEMBL1201862, “PubChem BioAssay data set” (2004).
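Briefly, cells in 96-well plates were exposed to five compound concentrations for 48 h, and endpoints were estimated by linear interpolation. GI50 marks 50% less growth.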 Activity calls are given as the source filed them. Cut-off read from the data, not from the text of the source: active = GI50 up to about 1.1 µM and inactive = higher. Non-standard residues stand in square brackets, D forms with d. Residues, ends and D or L forms follow the SMILES beside them. *: point of attachment. Cbz = O=C(OCc1ccccc1)*; Boc = CC(C)(C)OC(=O)*; Aib = CC(C)(N)C(=O)O; OBn = c1ccc(CO*)cc1; OtBu = CC(C)(C)O*; βAla = NCCC(=O)O

How the values were obtained:
Assay in all cases: NCI tumour cell line growth inhibition, 48 h
786-0 = test system: 786-0
BT-549 = test system: BT-549
DU-145 = test system: DU-145
HCT-116 = test system: HCT-116
HCT-15 = test system: HCT-15
HT-29 = test system: HT-29
K562 = test system: K562
KM12 = test system: KM12
LOX IMVI = test system: LOX IMVI
MCF7 = test system: MCF7
Malme-3M = test system: Malme-3M
NCI-H460 = test system: NCI-H460
OVCAR-3 = test system: OVCAR-3
SF-539 = test system: SF-539
SK-OV-3 = test system: SK-OV-3
SN12C = test system: SN12C
SNB-75 = test system: SNB-75
T47D = test system: T47D
TK-10 = test system: TK-10
U-251 = test system: U-251

Compound | GI50 (786-0) | GI50 (BT-549) | GI50 (DU-145) | GI50 (HCT-116) | GI50 (HCT-15) | GI50 (HT-29) | GI50 (K562) | GI50 (KM12) | GI50 (LOX IMVI) | GI50 (MCF7) | GI50 (Malme-3M) | GI50 (NCI-H460) | GI50 (OVCAR-3) | GI50 (SF-539) | GI50 (SK-OV-3) | GI50 (SN12C) | GI50 (SNB-75) | GI50 (T47D) | GI50 (TK-10) | GI50 (U-251)
O=[N+]([O-])c1cccnc1NCC1(CO)CC(Cc2ccccc2)C1 (stereo not given) | > 100 µM (inactive) | > 100 µM (inactive) | > 100 µM (inactive) | > 100 µM (inactive) | > 100 µM | > 100 µM (inactive) | > 100 µM (inactive) | > 100 µM (inactive) | > 100 µM (inactive) | > 100 µM (inactive) | > 100 µM (inactive) | > 100 µM (inactive) | > 100 µM (inactive) | > 100 µM (inactive) | > 100 µM (inactive) | > 100 µM (inactive) | > 100 µM (inactive) | > 100 µM (inactive) | > 100 µM (inactive) | > 100 µM (inactive)
C[C@@H](C[C@H]1OC(C)(C)O[C@@H]1C(C)(C)O)[C@H]1CC=C2[C@]3(C)[C@H](O)C[C@H]4C(C)(C)[C@H](O)CC[C@]4(C)[C@H]3CC[C@]21C | 9.73 µM (inactive) | 11.4 µM (inactive) | 14.1 µM (inactive) | 5.86 µM (inactive) | 6.03 µM | 2.9 µM (inactive) | 3.99 µM (inactive) | 6.21 µM (inactive) | 8.13 µM (inactive) | 2.12 µM (inactive) | 14 µM (inactive) | 6.44 µM (inactive) | 7.91 µM (inactive) | 11.9 µM (inactive) | 12.5 µM (inactive) | 3.32 µM (inactive) | 9.79 µM (inactive) | 7.73 µM (inactive) | 11.7 µM (inactive) | 6.84 µM (inactive)
CC(C)(C)OC(=O)CC(NC(=O)OC(C)(C)C)C(=O)NC(CCCCNC(=O)OCc1ccccc1)C(=O)NC(C)(C)C(=O)NCCC(=O)OCc1ccccc1 (stereo not given) (Boc-D(OtBu)K(Cbz)[Aib][βAla]-OBn; configuration not given here) | > 100 µM (inactive) | > 100 µM (inactive) | > 100 µM (inactive) | > 100 µM (inactive) | > 100 µM | > 100 µM (inactive) | > 100 µM (inactive) | > 100 µM (inactive) | > 100 µM (inactive) | > 100 µM (inactive) | > 100 µM (inactive) | > 100 µM (inactive) | > 100 µM (inactive) | > 100 µM (inactive) | > 100 µM (inactive) | > 100 µM (inactive) | > 100 µM (inactive) | > 100 µM (inactive) | > 100 µM (inactive) | > 100 µM (inactive)
